Earlier results in patent US20250170146A1, “NIRAPARIB AND ABIRATERONE ACETATE PLUS PREDNISONE TO IMPROVE CLINICAL OUTCOMES IN PATIENTS WITH METASTATIC CASTRATION-RESISTANT PROSTATE CANCER AND HRR ALTERATIONS” (JANSSEN PHARMACEUTICA NV, priority 2022, published 2025).
Like-named read-outs stand apart in the source and are kept apart here. Blank lines part the entries; values can stand above or below the compound they belong to.

Columns and labels:
[1] = system: post-docetaxel mCRPC; settings: Affirm
[2] = system: first line (pre-docetaxel) mCRPC; settings: Prevail
[3] = target: T1, CYP2C8 (Homo sapiens, UniProt P10632); settings: pioglitazone with a single dose of 1,000 mg AA; healthy subjects
T1 construct: host or cells: healthy subjects (in vivo; the subjects' own enzyme)
T1 sequence (P10632 1-490): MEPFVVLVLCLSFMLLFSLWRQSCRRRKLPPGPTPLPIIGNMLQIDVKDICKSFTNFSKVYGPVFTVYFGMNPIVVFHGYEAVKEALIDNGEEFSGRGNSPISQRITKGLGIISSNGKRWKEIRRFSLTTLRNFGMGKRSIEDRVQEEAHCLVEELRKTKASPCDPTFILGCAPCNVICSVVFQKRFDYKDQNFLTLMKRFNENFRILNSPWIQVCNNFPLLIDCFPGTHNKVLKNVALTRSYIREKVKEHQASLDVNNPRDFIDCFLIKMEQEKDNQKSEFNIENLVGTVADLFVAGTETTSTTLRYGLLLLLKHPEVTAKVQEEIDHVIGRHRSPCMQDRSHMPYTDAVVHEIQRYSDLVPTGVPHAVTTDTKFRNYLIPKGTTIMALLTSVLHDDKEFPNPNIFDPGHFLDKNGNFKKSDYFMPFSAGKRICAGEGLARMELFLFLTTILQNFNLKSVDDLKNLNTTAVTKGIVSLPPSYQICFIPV

[4] = system: mCRPC; settings: TAX-327
[5] = system: L2+ mCRPC HRR-positive

Structure (SMILES): CNC(=O)c1ccc(N2C(=S)N(c3ccc(C#N)c(C(F)(F)F)c3)C(=O)C2(C)C)cc1F [Enzalutamide]
OS [1]: 18.4 months
OS benefit vs placebo [1]: 4.8 months
PSA50 response [1]: 54%
QoL response rate [1]: 43%
TTPSA progression [1]: 8.3 months
rPFS [1]: 8.3 months
12-month rPFS milestone [2]: 65%
investigator assessed rPFS [2]: 20 months
median OS [2]: 35.3 months
median rPFS [2]: not reached
objective response rate (ORR) [2]: 59%
rPFS benefit by BICR Hazard Ratio [2]: 0.32
rPFS risk reduction by BICR [2]: 68%

increase in AUC of pioglitazone [3]: 46%
Structure (SMILES): CC(=O)O[C@H]1CC[C@@]2(C)C(=CC[C@@H]3[C@@H]2CC[C@]2(C)C(c4cccnc4)=CC[C@@H]32)C1 [AA, Abiraterone acetate]

Structure (SMILES): CC(=O)O[C@@]12CO[C@@H]1C[C@H](O)[C@@]1(C)C(=O)[C@H](O)C3=C(C)[C@@H](OC(=O)[C@H](O)[C@@H](NC(=O)OC(C)(C)C)c4ccccc4)C[C@@](O)([C@@H](OC(=O)c4ccccc4)[C@H]21)C3(C)C [docetaxel]
OS benefit vs mitoxantrone [4]: 2.4 months
PSA50 response [4]: 45%
overall survival (OS) [4]: 18.9 months
quality of life (QoL) response [4]: 22%
tumor response [4]: 12%

Structure (SMILES): Cc1ccc(S(=O)(=O)O)cc1.NC(=O)c1cccc2cn(-c3ccc([C@@H]4CCCNC4)cc3)nc12 [niraparib, 2-[4-[(3S)-piperidin-3-yl]phenyl]-2H-indazole-7-carboxamide]
median OS ([5]; L2+ mCRPC BRCA patients): 13.01 months
median rPFS ([5]; L2+ mCRPC BRCA patients): 8.08 months
median time to PSA progression ([5]; L2+ mCRPC BRCA patients): 5.13 months
median time to symptomatic skeletal event ([5]; L2+ mCRPC BRCA patients): 13.80 months
overall response rate (ORR) ([5]; L2+ mCRPC BRCA patients): 34.2%
ORR ([5]; L2+ mCRPC non-BRCA patients): 10.6%
median OS ([5]; non-BRCA patients): 9.63 months
median rPFS ([5]; non-BRCA patients): 3.71 months
median time to PSA progression ([5]; non-BRCA patients): 3.65 months
median time to symptomatic skeletal event ([5]; non-BRCA patients): 10.35 months

Structure (SMILES): O=C1c2c(O)ccc(O)c2C(=O)c2c(NCCNCCO)ccc(NCCNCCO)c21 [mitoxantrone]
PSA50 response [4]: 32%
overall survival (OS) [4]: 16.5 months
quality of life (QoL) response [4]: 13%
tumor response [4]: 7%
